From ChEMBL document CHEMBL5528035, “Design, Synthesis, and Biological Evaluation for First GPX4 and CDK Dual Inhibitors” (J Med Chem, 2024)

Columns and labels:
HCT-116 = experiment: cells; conditions: Homo sapiens, HCT-116, 48 h
Description: Antiproliferative activity against human HCT-116 cells assessed as inhibition of cell growth incubated for 48 hrs by CCK-8 assay

A549 = experiment: cells; conditions: Homo sapiens, A549, 48 h
Description: Antiproliferative activity against human A549 cells assessed as inhibition of cell growth incubated for 48 hrs by CCK-8 assay

MDA-MB-231 = experiment: cells; conditions: Homo sapiens, MDA-MB-231, 48 h
Description: Antiproliferative activity against human MDA-MB-231 cells assessed as inhibition of cell growth incubated for 48 hrs by CCK-8 assay

HepG2 = experiment: cells; conditions: Homo sapiens, HepG2, 48 h
Description: Antiproliferative activity against human HepG2 cells assessed as inhibition of cell growth incubated for 48 hrs by CCK-8 assay

[1] = molecular target: CDK2/Cyclin A2 (Homo sapiens) (UniProt P24941+P20248); experiment: Inhibition of CDK2/CyclinA2 (unknown origin) at 100 nM preincubated for 15 mins followed by substrate and ATP addition incubated for 10 mins by ADP-glo luminescent assay relative to control; format: protein-complex assay; conditions: time 25.0 min
[2] = molecular target: CDK6/cyclin D3 (Homo sapiens) (UniProt P30281+Q00534); experiment: Inhibition of CDK6/CyclinD3 (unknown origin) at 100 nM preincubated for 15 mins followed by substrate and ATP addition incubated for 10 mins by ADP-glo luminescent assay relative to control; format: protein-complex assay; conditions: time 25.0 min

Row | Compound | IC50 (HCT-116) [µM] | IC50 (A549) [µM] | IC50 (MDA-MB-231) [µM] | IC50 (HepG2) [µM] | inhibition [1] [%] | inhibition [2] [%]
1 | O=C(CCn1cc(COc2ccc(N(C(=O)CCl)C(C(=O)NCCc3ccccc3)c3cccs3)cc2Cl)nn1)O/N=C1/C(=C2/C(=O)Nc3ccccc32)Nc2ccc(F)cc21 (configuration not stated) | 4.25 | 6.37 | 3.24 | 5.58 | 19.6 | 21.4
2 | O=C(CCn1cc(COc2ccc(N(C(=O)CCl)C(C(=O)NCCc3ccccc3)c3cccs3)cc2Cl)nn1)NCCCO/N=C1/C(=C2/C(=O)Nc3ccc(Cl)cc32)Nc2ccccc21 (configuration not stated) | 4.25 | 2.67 | 5.65 | 4.83 | 28.1 | 39.4
3 | COc1ccc2c(c1)/C(=C1/Nc3ccccc3/C1=N\OCCCNC(=O)CCn1cc(COc3ccc(N(C(=O)CCl)C(C(=O)NCCc4ccccc4)c4cccs4)cc3Cl)nn1)C(=O)N2 (configuration not stated) | 1.96 | 4.09 | 2.01 | 4.66 | 26.6 | 40
4 | O=C(CCn1cc(COc2ccc(N(C(=O)CCl)C(C(=O)NCCc3ccccc3)c3cccs3)cc2Cl)nn1)O/N=C1/C(=C2/C(=O)Nc3ccccc32)Nc2ccc(Br)cc21 (configuration not stated) | > 10 | > 10 | > 10 | > 10 | 13.3 | 34.9
5 | O=C(CCn1cc(COc2ccc(N(C(=O)CCl)C(C(=O)NCCc3ccccc3)c3cccs3)cc2Cl)nn1)NCCCO/N=C1/C(=C2/C(=O)Nc3cc(Br)c(Br)cc32)Nc2ccccc21 (configuration not stated) | > 10 | > 10 | > 10 | > 10 | 4.02 | 4.65
6 | O=C(CCn1cc(COc2ccc(N(C(=O)CCl)C(C(=O)NCCc3ccccc3)c3cccs3)cc2Cl)nn1)NCCCO/N=C1/C(=C2/C(=O)Nc3ccc(Br)cc32)Nc2ccccc21 (configuration not stated) | 8.77 | > 10 | > 10 | > 10 | 15.5 | 21.3
7 | O=C(CCn1cc(COc2ccc(N(C(=O)CCl)C(C(=O)NCCc3ccccc3)c3cccs3)cc2Cl)nn1)O/N=C1/C(=C2/C(=O)Nc3ccccc32)Nc2cc(Cl)c(Cl)cc21 (configuration not stated) | > 10 | > 10 | > 10 | > 10 | 5.9 | 10.4
8 | COc1ccc2c(c1)C(=N\OC(=O)CCn1cc(COc3ccc(N(C(=O)CCl)C(C(=O)NCCc4ccccc4)c4cccs4)cc3Cl)nn1)/C(=C1/C(=O)Nc3ccccc31)N2 (configuration not stated) | 6.97 | 7.04 | 4.65 | 8.36 | 14.1 | 22
9 | O=C(CCn1cc(COc2ccc(N(C(=O)CCl)C(C(=O)NCCc3ccccc3)c3cccs3)cc2Cl)nn1)NCCCO/N=C1/C(=C2/C(=O)Nc3cc(Cl)ccc32)Nc2ccccc21 (configuration not stated) | 7.17 | 9.09 | 7.46 | 9 | 31 | 38.5
10 | O=C(CCn1cc(COc2ccc(N(C(=O)CCl)C(C(=O)NCCc3ccccc3)c3cccs3)cc2Cl)nn1)NCCCO/N=C1/C(=C2/C(=O)Nc3ccccc32)Nc2ccccc21 (configuration not stated) | 1.49 | 2.85 | 1.2 | 2.02 | 22.1 | 52.1
11 | O=C(CCn1cc(COc2ccc(N(C(=O)CCl)C(C(=O)NCCc3ccccc3)c3cccs3)cc2Cl)nn1)NCCCO/N=C1/C(=C2/C(=O)Nc3cc(F)ccc32)Nc2ccccc21 (configuration not stated) | 2.91 | 6.6 | 3.96 | 4.12 | 28.9 | 36.8
12 | O=C(CCn1cc(COc2ccc(N(C(=O)CCl)C(C(=O)NCCc3ccccc3)c3cccs3)cc2Cl)nn1)NCCCO/N=C1/C(=C2/C(=O)Nc3ccc(F)cc32)Nc2ccccc21 (configuration not stated) | 1.99 | 1.88 | 1.64 | 4.92 | 3.17 | 36.2
